Experimental data taken from patent publication US20080176255A1, “Mold detection composition and methods” (priority 2007, published 2008).
Counter-ions that a name gives are not always drawn.

Test: Solubility in distilled water
Type: physicochemical
Description: In one embodiment, the compositions described herein may further comprise a solvent; a gelling agent; and a diluent.

Which solubility (at 25° C.) does the source give for `O=S(=O)(O)c1ccccc1C=Cc1ccc(-c2ccc(C=Cc3ccccc3S(=O)(=O)O)cc2)cc1` [BBD, 2,2′-([1,1′-Biphenyl]-4,4′-diyldi-2,1-ethenediyl)bis-benzenesulfonic acid disodium salt] here?
The solubility was 25 mg/mL.

What about the solubility (at 95° C.) of the same compound?
Its solubility is 300 mg/mL.
